According to ChEMBL document CHEMBL1201861, “Genomics of Drug Sensitity in Cancer screening data, Wellcome Trust Sanger Institute”:

Key:
Test in all cases: cells
HCC2157 = assay type: functional, cell-based; details: Homo sapiens;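 also: growth inhibition of the cancer cell line, read out as cell viability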
Description: SANGER: Inhibition of human HCC2157 cell growth in a cell viability assay.

DSH1 = assay type: functional, cell-based, Homo sapiens; details: Homo sapiens, DSH1;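 also: growth inhibition of human DSH1 cells, measured with a cell viability readout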
Description: SANGER: Inhibition of human DSH1 cell growth in a cell viability assay.

COLO-680N = assay type: functional, cell-based, Homo sapiens; details: Homo sapiens, COLO-680N;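 also: cell viability assay used to measure inhibition of COLO-680N cell growth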
Description: SANGER: Inhibition of human COLO-680N cell growth in a cell viability assay.

HT1197 = assay type: functional, cell-based, Homo sapiens, HT-1197; details: Homo sapiens, HT1197
Description: SANGER: Inhibition of human HT-1197 cell growth in a cell viability assay.

OVCAR-8 = assay type: functional, cell-based, Homo sapiens; details: Homo sapiens, OVCAR-8;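 also: growth inhibition of human OVCAR-8 cells, read out by a cell viability assay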
Description: SANGER: Inhibition of human OVCAR-8 cell growth in a cell viability assay.

NOS-1 = assay type: functional, cell-based, Homo sapiens; details: Homo sapiens, NOS-1;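 also: growth inhibition of the human NOS-1 cell line, read out with a cell viability assay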
Description: SANGER: Inhibition of human NOS-1 cell growth in a cell viability assay.

ES4 = assay type: functional, cell-based, Homo sapiens; details: Homo sapiens, ES4;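 also: growth inhibition of human ES4 cells, read out by a cell viability assay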
Description: SANGER: Inhibition of human ES4 cell growth in a cell viability assay.

KYSE-140 = assay type: functional, cell-based, Homo sapiens; details: Homo sapiens, KYSE-140;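 also: cell viability assay measuring growth inhibition in human KYSE-140 cells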
Description: SANGER: Inhibition of human KYSE-140 cell growth in a cell viability assay.

CTB-1 = assay type: functional, cell-based; details: Homo sapiens
Description: SANGER: Inhibition of human CTB-1 cell growth in a cell viability assay.

DOK = assay type: functional, cell-based, Homo sapiens; details: Homo sapiens, DOK;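 also: cell viability assay read-out, values reflect inhibition of cell growth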
Description: SANGER: Inhibition of human DOK cell growth in a cell viability assay.

MSTO-211H = assay type: functional, cell-based, Homo sapiens; details: Homo sapiens, MSTO-211H
Description: SANGER: Inhibition of human MSTO-211H cell growth in a cell viability assay.

HCC1419 = assay type: functional, cell-based, Homo sapiens; details: Homo sapiens, HCC1419;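 also: growth inhibition of human HCC1419 cells, read out as cell viability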
Description: SANGER: Inhibition of human HCC1419 cell growth in a cell viability assay.

KM-H2 = assay type: functional, cell-based; details: Homo sapiens;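 also: growth inhibition of KM-H2 cells, read out by a cell viability assay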
Description: SANGER: Inhibition of human KM-H2 cell growth in a cell viability assay.

RCC10RGB = assay type: functional, cell-based, Homo sapiens; details: Homo sapiens, RCC10RGB;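 also: growth inhibition of human RCC10RGB cells, read out by a cell viability assay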
Description: SANGER: Inhibition of human RCC10RGB cell growth in a cell viability assay.

PANC-08-13 = assay type: functional, cell-based, Homo sapiens; details: Homo sapiens, PANC-08-13;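 also: cell growth inhibition, measured with a cell viability assay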
Description: SANGER: Inhibition of human PANC-08-13 cell growth in a cell viability assay.

SK-MEL-2 = assay type: functional, cell-based, Homo sapiens; details: Homo sapiens, SK-MEL-2
Description: SANGER: Inhibition of human SK-MEL-2 cell growth in a cell viability assay.

BXPC-3 = assay type: functional, cell-based, Homo sapiens; details: Homo sapiens, BXPC-3;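 also: growth inhibition of human BxPC-3 cells, read out by a cell viability assay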
Description: SANGER: Inhibition of human BxPC-3 cell growth in a cell viability assay.

NCI-H1793 = assay type: functional, cell-based, Homo sapiens; details: Homo sapiens, NCI-H1793;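 also: cell growth inhibition, read out by a cell viability assay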
Description: SANGER: Inhibition of human NCI-H1793 cell growth in a cell viability assay.

JAR = assay type: functional, cell-based, Homo sapiens; details: Homo sapiens, JAR;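 also: growth inhibition of human JAR cells determined with a cell viability assay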
Description: SANGER: Inhibition of human JAR cell growth in a cell viability assay.

RT-112 = assay type: functional, cell-based, Homo sapiens; details: Homo sapiens, RT-112
Description: SANGER: Inhibition of human RT-112 cell growth in a cell viability assay.

NCI-H2228 = assay type: functional, cell-based, Homo sapiens; details: Homo sapiens, NCI-H2228;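 also: growth inhibition of human NCI-H2228 cells, read out by a cell viability assay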
Description: SANGER: Inhibition of human NCI-H2228 cell growth in a cell viability assay.

CAL-72 = assay type: functional, cell-based, Homo sapiens; details: Homo sapiens, CAL-72;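 also: cell viability assay measuring inhibition of proliferation in the CAL-72 cell line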
Description: SANGER: Inhibition of human CAL-72 cell growth in a cell viability assay.

SF-268 = assay type: functional, cell-based, Homo sapiens; details: Homo sapiens, SF-268;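 also: growth inhibition of SF-268 cells determined with a cell viability assay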
Description: SANGER: Inhibition of human SF268 cell growth in a cell viability assay.

LS-123 = assay type: functional, cell-based, Homo sapiens; details: Homo sapiens, LS-123
Description: SANGER: Inhibition of human LS-123 cell growth in a cell viability assay.

AM-38 = assay type: functional, cell-based, Homo sapiens; details: Homo sapiens, AM-38;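 also: growth inhibition of AM-38 cells of human origin, read out by a cell viability assay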
Description: SANGER: Inhibition of human AM-38 cell growth in a cell viability assay.

OVCAR-4 = assay type: functional, cell-based, Homo sapiens; details: Homo sapiens, OVCAR-4;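 also: growth inhibition of human OVCAR-4 cells, measured with a cell viability assay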
Description: SANGER: Inhibition of human OVCAR-4 cell growth in a cell viability assay.

BFTC-905 = assay type: functional, cell-based, Homo sapiens; details: Homo sapiens, BFTC-905
Description: SANGER: Inhibition of human BFTC-905 cell growth in a cell viability assay.

MDA-MB-231 = assay type: functional, cell-based, Homo sapiens; details: Homo sapiens, MDA-MB-231
Description: SANGER: Inhibition of human MDA-MB-231 cell growth in a cell viability assay.

HEC-1 = assay type: functional, cell-based, Homo sapiens; details: Homo sapiens, HEC-1;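 also: growth inhibition of the cell line, read out with a cell viability assay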
Description: SANGER: Inhibition of human HEC-1 cell growth in a cell viability assay.

Hs-578T = assay type: functional, cell-based, Homo sapiens; details: Homo sapiens, Hs-578T
Description: SANGER: Inhibition of human Hs-578-T cell growth in a cell viability assay.

KYSE-450 = assay type: functional, cell-based; details: Homo sapiens;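 also: cell growth inhibition measured by a viability assay in human KYSE-450 cells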
Description: SANGER: Inhibition of human KYSE-450 cell growth in a cell viability assay.

SW48 = assay type: functional, cell-based, Homo sapiens; details: Homo sapiens, SW48;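 also: growth inhibition of SW48 cells, read out with a cell viability assay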
Description: SANGER: Inhibition of human SW48 cell growth in a cell viability assay.

LCLC-103H cell line = assay type: functional, cell-based, Homo sapiens; details: Homo sapiens, LCLC-103H
Description: SANGER: Inhibition of human LCLC-103H cell growth in a cell viability assay.

NCI-H2030 = assay type: functional, cell-based, Homo sapiens; details: Homo sapiens, NCI-H2030;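 also: growth inhibition of human NCI-H2030 cells, read out by a cell viability assay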
Description: SANGER: Inhibition of human NCI-H2030 cell growth in a cell viability assay.

NCI-H2170 = assay type: functional, cell-based, Homo sapiens; details: Homo sapiens, NCI-H2170;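 also: cell viability assay measuring growth inhibition of human NCI-H2170 cancer cells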
Description: SANGER: Inhibition of human NCI-H2170 cell growth in a cell viability assay.

A2780 = assay type: functional, cell-based, Homo sapiens; details: Homo sapiens, A2780;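 also: growth inhibition of A2780 cells, read out with a cell viability assay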
Description: SANGER: Inhibition of human A2780 cell growth in a cell viability assay.

COLO-792 = assay type: functional, cell-based, Homo sapiens; details: Homo sapiens, COLO-792
Description: SANGER: Inhibition of human COLO-792 cell growth in a cell viability assay.

H4 = assay type: functional, cell-based; details: Homo sapiens
Description: SANGER: Inhibition of human H4 cell growth in a cell viability assay.

SK-MEL-28 = assay type: functional, cell-based; details: Homo sapiens;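 also: growth inhibition of human SK-MEL-28 cells, read out with a cell viability assay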
Description: SANGER: Inhibition of human SK-MEL-28 cell growth in a cell viability assay.

NOMO-1 = assay type: functional, cell-based; details: Homo sapiens;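 also: growth inhibition of human NOMO-1 cells measured by a cell viability assay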
Description: SANGER: Inhibition of human NOMO-1 cell growth in a cell viability assay.

Panc1005 = assay type: functional, cell-based, Homo sapiens; details: Homo sapiens, Panc1005;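 also: growth inhibition of human PANC-10-05 cells, measured by a cell viability assay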
Description: SANGER: Inhibition of human PANC-10-05 cell growth in a cell viability assay.

DMS-114 = assay type: functional, cell-based, Homo sapiens; details: Homo sapiens, DMS-114
SKG-IIIa = assay type: functional, cell-based, Homo sapiens; details: Homo sapiens, SKG-IIIa;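 also: cell growth inhibition, read out with a cell viability assay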
Description: SANGER: Inhibition of human SKG-IIIa cell growth in a cell viability assay.

ES3 = assay type: functional, cell-based, Homo sapiens; details: Homo sapiens, ES3;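 also: growth inhibition of ES3 cells, read out with a cell viability assay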
Description: SANGER: Inhibition of human ES3 cell growth in a cell viability assay.

HuO-3N1 = assay type: functional, cell-based, Homo sapiens; details: Homo sapiens, HuO-3N1;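 also: cell viability readout used to measure how strongly compounds suppress proliferation of human HuO-3N1 cells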
Description: SANGER: Inhibition of human HuO-3N1 cell growth in a cell viability assay.

AU565 = assay type: functional, cell-based, Homo sapiens; details: Homo sapiens, AU565;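 also: cell viability assay measuring growth inhibition of human AU565 cells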
Description: SANGER: Inhibition of human AU565 cell growth in a cell viability assay.

KYSE-150 cell line = assay type: functional, cell-based, Homo sapiens; details: Homo sapiens, KYSE-150;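 also: growth inhibition of human KYSE-150 cells, read out with a cell viability assay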
Description: SANGER: Inhibition of human KYSE-150 cell growth in a cell viability assay.

CAPAN-1 = assay type: functional, cell-based, Homo sapiens; details: Homo sapiens, CAPAN-1;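 also: growth suppression of CAPAN-1 cells, read out by a cell viability assay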
Description: SANGER: Inhibition of human CAPAN-1 cell growth in a cell viability assay.

`COc1cc(F)c(F)c(Nc2ccc(I)cc2F)c1NS(=O)(=O)C1(CC(O)CO)CC1` (centres undefined) showed an IC50 (HCC2157) of over 5 µM, an IC50 (DSH1) of over 5 µM and an IC50 (COLO-680N) of over 5 µM. For the same compound, the IC50 (HT1197) was over 5 µM, the IC50 (OVCAR-8) was over 5 µM and the IC50 (NOS-1) was over 5 µM. For the same compound, the IC50 (ES4) was over 5 µM, the IC50 (KYSE-140) was 2.9 µM and the IC50 (CTB-1) was over 5 µM. The IC50 (DOK) was 0.432 µM, the IC50 (MSTO-211H) was 3.08 µM and the IC50 (HCC1419) was over 5 µM. For the same compound, the IC50 (KM-H2) was over 5 µM, the IC50 (RCC10RGB) was over 5 µM and the IC50 (PANC-08-13) was over 5 µM. For the same compound, the IC50 (SK-MEL-2) was 0.101 µM, the IC50 (BXPC-3) was 1.6 µM and the IC50 (NCI-H1793) was over 5 µM. It also gave an IC50 (JAR) of over 5 µM, an IC50 (RT-112) of 1.59 µM and an IC50 (NCI-H2228) of over 5 µM. It also gave an IC50 (CAL-72) of over 5 µM, an IC50 (SF-268) of over 5 µM and an IC50 (LS-123) of 2.51 µM. The IC50 (AM-38) was over 5 µM, the IC50 (OVCAR-4) was over 5 µM and the IC50 (BFTC-905) was 0.719 µM. The IC50 (MDA-MB-231) was 1.12 µM, the IC50 (HEC-1) was over 5 µM and the IC50 (Hs-578T) was 1.76 µM. The IC50 (KYSE-450) was over 5 µM, the IC50 (SW48) was over 5 µM and the IC50 (LCLC-103H cell line) was over 5 µM. The IC50 (NCI-H2030) was over 5 µM, the IC50 (NCI-H2170) was over 5 µM and the IC50 (A2780) was over 5 µM. The IC50 (COLO-792) was 0.761 µM, the IC50 (H4) was 3.35 µM and the IC50 (SK-MEL-28) was 0.115 µM. The IC50 (NOMO-1) was 0.137 µM, the IC50 (Panc1005) was over 5 µM and the IC50 (DMS-114) was over 5 µM. It also gave an IC50 (SKG-IIIa) of over 5 µM, an IC50 (ES3) of over 5 µM and an IC50 (HuO-3N1) of over 5 µM. For the same compound, the IC50 (AU565) was over 5 µM, the IC50 (KYSE-150 cell line) was 3.4 µM and the IC50 (CAPAN-1) was 4.15 µM.
With `COc1ccc(C2=N[C@@H](c3ccc(Cl)cc3)[C@@H](c3ccc(Cl)cc3)N2C(=O)N2CCNC(=O)C2)c(OC(C)C)c1` [NUTLIN-3] the IC50 (HCC2157) was over 8 µM, the IC50 (DSH1) was over 8 µM and the IC50 (COLO-680N) was over 8 µM. The IC50 (HT1197) was over 8 µM, the IC50 (OVCAR-8) was over 8 µM and the IC50 (NOS-1) was over 8 µM. The IC50 (ES4) was 2.43 µM, the IC50 (KYSE-140) was over 8 µM and the IC50 (CTB-1) was 2.02 µM. For the same compound, the IC50 (DOK) was over 8 µM, the IC50 (MSTO-211H) was 2.57 µM and the IC50 (HCC1419) was over 8 µM. For the same compound, the IC50 (KM-H2) was 7.89 µM, the IC50 (RCC10RGB) was over 8 µM and the IC50 (PANC-08-13) was over 8 µM. It also gave an IC50 (SK-MEL-2) of over 8 µM, an IC50 (BXPC-3) of over 8 µM and an IC50 (NCI-H1793) of over 8 µM. It also gave an IC50 (JAR) of over 8 µM, an IC50 (RT-112) of over 8 µM and an IC50 (NCI-H2228) of over 8 µM. It also gave an IC50 (CAL-72) of over 8 µM, an IC50 (SF-268) of over 8 µM and an IC50 (LS-123) of over 8 µM. The IC50 (AM-38) was 6.76 µM, the IC50 (OVCAR-4) was over 8 µM and the IC50 (BFTC-905) was over 8 µM. It also gave an IC50 (MDA-MB-231) of over 8 µM, an IC50 (HEC-1) of over 8 µM and an IC50 (Hs-578T) of over 8 µM. For the same compound, the IC50 (KYSE-450) was over 8 µM, the IC50 (SW48) was over 8 µM and the IC50 (LCLC-103H cell line) was over 8 µM. For the same compound, the IC50 (NCI-H2030) was over 8 µM, the IC50 (NCI-H2170) was over 8 µM and the IC50 (A2780) was over 8 µM. The IC50 (COLO-792) was over 8 µM, the IC50 (H4) was 0.663 µM and the IC50 (SK-MEL-28) was over 8 µM. It also gave an IC50 (NOMO-1) of over 8 µM, an IC50 (Panc1005) of over 8 µM and an IC50 (DMS-114) of over 8 µM. The IC50 (SKG-IIIa) was over 8 µM, the IC50 (ES3) was over 8 µM and the IC50 (HuO-3N1) was over 8 µM. For the same compound, the IC50 (AU565) was over 8 µM, the IC50 (KYSE-150 cell line) was over 8 µM and the IC50 (CAPAN-1) was over 8 µM.
`O=C1N=C(NCc2cccs2)S/C1=C\c1ccc2ncccc2c1` showed an IC50 (HCC2157) of over 5 µM, an IC50 (DSH1) of over 5 µM and an IC50 (COLO-680N) of over 5 µM. For the same compound, the IC50 (HT1197) was over 5 µM, the IC50 (OVCAR-8) was over 5 µM and the IC50 (NOS-1) was over 5 µM. For the same compound, the IC50 (ES4) was over 5 µM, the IC50 (KYSE-140) was over 5 µM and the IC50 (CTB-1) was over 5 µM. The IC50 (DOK) was over 5 µM, the IC50 (MSTO-211H) was over 5 µM and the IC50 (HCC1419) was over 5 µM. For the same compound, the IC50 (KM-H2) was over 5 µM, the IC50 (RCC10RGB) was over 5 µM and the IC50 (PANC-08-13) was over 5 µM. For the same compound, the IC50 (SK-MEL-2) was over 5 µM, the IC50 (BXPC-3) was over 5 µM and the IC50 (NCI-H1793) was over 5 µM. The IC50 (JAR) was over 5 µM, the IC50 (RT-112) was over 5 µM and the IC50 (NCI-H2228) was over 5 µM. It also gave an IC50 (CAL-72) of over 5 µM, an IC50 (SF-268) of over 5 µM and an IC50 (LS-123) of over 5 µM. It also gave an IC50 (AM-38) of over 5 µM, an IC50 (OVCAR-4) of over 5 µM and an IC50 (BFTC-905) of over 5 µM. It also gave an IC50 (MDA-MB-231) of over 5 µM, an IC50 (HEC-1) of over 5 µM and an IC50 (Hs-578T) of 2.28 µM. For the same compound, the IC50 (KYSE-450) was over 5 µM, the IC50 (SW48) was over 5 µM and the IC50 (LCLC-103H cell line) was over 5 µM. For the same compound, the IC50 (NCI-H2030) was over 5 µM, the IC50 (NCI-H2170) was over 5 µM and the IC50 (A2780) was over 5 µM. For the same compound, the IC50 (COLO-792) was over 5 µM, the IC50 (H4) was 1.16 µM and the IC50 (SK-MEL-28) was over 5 µM. For the same compound, the IC50 (NOMO-1) was over 5 µM, the IC50 (Panc1005) was over 5 µM and the IC50 (DMS-114) was over 5 µM. It also gave an IC50 (SKG-IIIa) of over 5 µM, an IC50 (ES3) of over 5 µM and an IC50 (HuO-3N1) of over 5 µM. The IC50 (AU565) was over 5 µM, the IC50 (KYSE-150 cell line) was over 5 µM and the IC50 (CAPAN-1) was over 5 µM.
